Molecules are shown by their SMILES.

Usually Ki stands for the equilibrium dissociation constant of an inhibitor or competing ligand from its target.

The target of one test is adenosine A2A receptor (Homo sapiens, UniProt P29274). Particulars: read-out: % Inhib. 10 μM A2A.
In a further test the target is T1, adenosine A3 receptor (Homo sapiens, UniProt P0DMS8).
T1 sequence (P0DMS8 1-318): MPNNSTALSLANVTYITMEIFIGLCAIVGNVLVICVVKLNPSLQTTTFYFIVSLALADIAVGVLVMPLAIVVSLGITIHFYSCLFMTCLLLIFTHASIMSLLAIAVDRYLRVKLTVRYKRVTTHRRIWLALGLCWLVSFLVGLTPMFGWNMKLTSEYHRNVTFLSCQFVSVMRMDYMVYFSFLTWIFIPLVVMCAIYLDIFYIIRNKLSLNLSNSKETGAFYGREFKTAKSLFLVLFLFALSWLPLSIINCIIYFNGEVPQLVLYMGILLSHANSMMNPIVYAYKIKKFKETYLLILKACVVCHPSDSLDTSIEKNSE
Description: Radioligand competition binding assay, adenosine A3 receptor ([3H]-NECA). Further details: PEI (potency efficiency index), ligand efficiency for A3 receptor: dose or concentration left out as unconfirmed. Particulars: for PEI (potency efficiency index), ligand efficiency for A3 receptor: PEI = (inhibition, ratio) / (MW, kD); for inhibition at 10 µM: read-out: % Inhib. 10 μM A3. Background: Loss of bound radioactivity is the signal in a displacement assay; it reports binding, not function.

Chain of adenosine A2A receptor (P29274 whole entry): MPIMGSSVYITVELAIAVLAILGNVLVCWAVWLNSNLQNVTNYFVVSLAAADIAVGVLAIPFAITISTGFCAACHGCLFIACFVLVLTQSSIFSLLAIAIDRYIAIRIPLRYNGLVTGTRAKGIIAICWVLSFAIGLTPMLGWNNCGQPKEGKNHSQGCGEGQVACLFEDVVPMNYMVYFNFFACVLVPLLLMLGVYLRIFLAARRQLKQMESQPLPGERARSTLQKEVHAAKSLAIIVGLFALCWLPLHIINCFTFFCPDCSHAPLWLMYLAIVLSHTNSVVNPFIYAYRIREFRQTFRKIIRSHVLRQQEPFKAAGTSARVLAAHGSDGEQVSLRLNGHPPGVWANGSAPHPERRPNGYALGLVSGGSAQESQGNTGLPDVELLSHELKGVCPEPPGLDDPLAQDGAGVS

Regarding `Nc1ncnc2c1ncn2[C@@H]1O[C@H](CO)[C@@H](O)[C@H]1OCOCCCc1ccccc1` [Compound 12, 2′-O-(3-Phenylpropyleneoxymethyl)-adenosine], the inhibition at 10 µM at adenosine A2A receptor is 2 ± 1%. Also, on adenosine A3 receptor, the affinity corresponds to a Ki of 2210 nM; the “PEI (potency efficiency index), ligand efficiency for A3 receptor” value (“PEI (potency efficiency index)” for short) was 1.61; the inhibition at 10 µM was 67 ± 1%.
As to `CC[C@@H]1Cn2c(c3nc(-c4cc(Cl)cc(Cl)c4Cl)nc-3n(C)c2=O)N1.Cl` [PSB 10 hydrochloride, reference compound], the “PEI (potency efficiency index)” value on adenosine A3 receptor turned out to be 2.51.
For the molecule `Nc1ncnc2c1ncn2[C@H]1C[C@H](O)[C@@H](CO)O1` [2′-deoxyadenosine, reference compound], the inhibition at 10 µM at adenosine A2A receptor worked out at 3 ± 1%. Besides, on adenosine A3 receptor, the “PEI (potency efficiency index)” value is on record as 0.20 and the inhibition at 10 µM was determined as 5 ± 1%.
As to `OC[C@H]1O[C@@H](n2cnc3c(NCCCc4ccccc4)ncnc32)[C@H](O)[C@@H]1O` [Compound 4], the inhibition at 10 µM at adenosine A2A receptor came out at 32 ± 1%. Also, at adenosine A3 receptor, the affinity, expressed as Ki, was 7.5 nM; the “PEI (potency efficiency index)” value was determined as 2.54; the inhibition at 10 µM amounted to 98 ± 1%.

For the origin of these results see PMC6222516 (Molecules : A Journal of Synthetic Chemistry and Natural …, 2018).
